Reference: the supplement of paper PMC10307832

How the values were obtained:
Experiment in all cases: relative viability (nuclei count vs DMSO), 5 days (fraction); higher = more cells survive
Metformin + Lapatinib = compound: CN(C)C(=N)NC(=N)N [Metformin] + CS(=O)(=O)CCNCc1ccc(-c2ccc3ncnc(Nc4ccc(OCc5cccc(F)c5)c(Cl)c4)c3c2)o1 [Lapatinib] (partner 2 µM)
Method in brief: (§1)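 Values are medians from duplicate plates. Each reflects relative viability, defined as the nuclei count of treated wells over that of vehicle wells. Lung cancer cell lines in 1536-well plates were pin-tool dosed one day after seeding with one drug alone or with a fixed anchor-drug dose plus five library-drug doses (not always all listed) in √10 steps, then fixed, stained and imaged at 4× after 5 days.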

Apatinib + Palbociclib = compound: N#CC1(c2ccc(NC(=O)c3cccnc3NCc3ccncc3)cc2)CCCC1 [Apatinib] + CC(=O)c1c(C)c2cnc(Nc3ccc(N4CCNCC4)cn3)nc2n(C2CCCC2)c1=O [Palbociclib] (partner 0.5 µM)
Method in brief: as §1

Apatinib + Luminespib = compound: N#CC1(c2ccc(NC(=O)c3cccnc3NCc3ccncc3)cc2)CCCC1 [Apatinib] + CCNC(=O)c1noc(-c2cc(C(C)C)c(O)cc2O)c1-c1ccc(CN2CCOCC2)cc1 [Luminespib] (partner 0.01 µM)
Method in brief: as §1

Apatinib + Phenformin = compound: N#CC1(c2ccc(NC(=O)c3cccnc3NCc3ccncc3)cc2)CCCC1 [Apatinib] + N=C(N)NC(=N)NCCc1ccccc1 [Phenformin] (partner 250 µM)
Method in brief: as §1

Cell Line	relative viability (Metformin + Lapatinib; first compound 10 µM)	relative viability (Metformin + Lapatinib; first compound 31.62 µM)	relative viability (Metformin + Lapatinib; first compound 100 µM)	relative viability (Metformin + Lapatinib; first compound 316.23 µM)	relative viability (Metformin + Lapatinib; first compound 1000 µM)	relative viability (Apatinib + Palbociclib; first compound 0.08 µM)	relative viability (Apatinib + Palbociclib; first compound 0.253 µM)	relative viability (Apatinib + Palbociclib; first compound 0.8 µM)	relative viability (Apatinib + Palbociclib; first compound 2.53 µM)	relative viability (Apatinib + Palbociclib; first compound 8 µM)	relative viability (Apatinib + Luminespib; first compound 0.08 µM)	relative viability (Apatinib + Luminespib; first compound 0.253 µM)	relative viability (Apatinib + Luminespib; first compound 0.8 µM)	relative viability (Apatinib + Luminespib; first compound 2.53 µM)	relative viability (Apatinib + Luminespib; first compound 8 µM)	relative viability (Apatinib + Phenformin; first compound 0.08 µM)	relative viability (Apatinib + Phenformin; first compound 0.253 µM)	relative viability (Apatinib + Phenformin; first compound 0.8 µM)	relative viability (Apatinib + Phenformin; first compound 2.53 µM)	relative viability (Apatinib + Phenformin; first compound 8 µM)
NCI-H650	1.22	1.04	0.887	0.799	0.942	0.316	0.337	0.372	0.272	0.264	0.774	0.831	0.872	0.645	0.524	0.405	0.413	0.447	0.385	0.374
NCI-H2126	0.678	0.774	0.771	0.787	0.749	0.324	0.352	0.355	0.322	0.34	0.963	0.774	0.985	0.826	0.832	0.564	0.501	0.512	0.521	0.523
NCI-H1395	1.11	1.25	1.36	0.963	0.576	0.632	0.687	0.644	0.585	0.602	0.713	0.686	0.784	0.604	0.527	0.464	0.419	0.454	0.412	0.459
NCI-H1355	0.884	0.955	0.946	0.982	1.06	0.379	0.394	0.367	0.378	0.366	0.672	0.809	0.761	0.647	0.563	0.438	0.443	0.447	0.406	0.385
NCI-H1792	–	0.87	1.03	0.795	0.864	0.662	0.651	0.577	0.633	0.622	0.495	0.521	0.43	0.308	0.274	0.5	0.227	0.235	0.111	0.184
NCI-H596	1.18	1.22	1.07	1.06	1.2	–	–	–	–	–	1.09	1.2	0.926	0.97	0.903	0.801	0.724	0.723	0.705	0.711
NCI-H23	0.998	1.14	1.05	0.762	1.11	0.561	0.57	0.575	0.409	0.424	0.23	0.22	0.211	0.2	0.213	0.851	0.733	0.735	0.717	0.705
HCC-15	0.54	0.908	0.891	0.785	0.913	0.792	0.734	0.677	0.705	0.586	0.364	0.241	0.302	0.317	0.316	0.472	0.512	0.435	0.39	0.371
HCC-44	1.05	0.976	1.03	0.939	1.03	0.999	0.987	0.894	0.839	0.8	0.98	1.21	1.03	1.02	0.751	0.153	0.17	0.309	0.22	0.203
HCC-78	0.494	1.05	0.863	0.933	0.969	0.48	0.453	0.476	0.494	0.442	–	–	–	–	–	0.644	0.607	0.691	0.605	0.618
NCI-H1563	0.999	0.912	1.02	0.924	0.783	–	–	–	–	–	0.534	0.536	0.533	0.548	0.543	0.642	0.705	0.75	0.517	0.623
NCI-H1703	1.71	1.46	1.15	1.05	1.05	–	–	–	–	–	–	–	–	–	–	–	–	–	–	–
LCLC-103H	–	–	–	–	–	0.513	0.436	0.426	0.465	0.483	0.969	0.949	0.864	0.957	0.735	0.363	0.31	0.316	0.297	0.308
NCI-H1299	0.973	1.03	1.04	1.01	0.999	–	–	–	–	–	–	–	–	–	–	–	–	–	–	–
ChaGo-K-1	–	–	–	–	–	0.993	1.04	0.908	0.9	0.772	0.618	0.679	0.661	0.519	0.564	0.473	0.528	0.425	0.424	0.428
NCI-H441	–	–	–	–	–	0.234	0.217	0.219	0.211	0.212	0.261	0.296	0.253	0.406	0.308	0.849	0.762	0.827	0.784	0.76
NCI-H522	–	–	–	–	–	1.03	1.18	1.06	0.928	0.903	1.14	1.08	1.27	1.07	0.955	0.708	0.696	0.638	0.617	0.669
NCI-H1623	–	–	–	–	–	–	–	–	–	–	0.402	0.429	0.465	0.461	0.476	0.601	0.624	0.636	0.511	0.616
NCI-H2342	–	–	–	–	–	0.497	0.524	0.49	0.498	0.572	0.677	0.552	0.81	0.702	0.726	0.526	0.588	0.585	0.569	0.577
A549	0.946	0.934	0.909	0.722	0.923	–	–	–	–	–	–	–	–	–	–	0.181	0.219	0.144	0.125	0.0802
EBC-1	0.182	0.181	0.23	0.281	0.248	–	–	–	–	–	–	–	–	–	–	–	–	–	–	–
